According to ChEMBL document CHEMBL1201862, “PubChem BioAssay data set” (2004):
Activity calls are given as the source filed them.

Key:
[1] = target: T1, Sentrin-specific protease 6 (Homo sapiens, UniProt Q9GZR1); assay: inhibition of human SENP6 catalytic domain – biochemical, luminescence, set 2, SAR follow-up (AID 588598); format: functional
T1 sequence (Q9GZR1 whole entry): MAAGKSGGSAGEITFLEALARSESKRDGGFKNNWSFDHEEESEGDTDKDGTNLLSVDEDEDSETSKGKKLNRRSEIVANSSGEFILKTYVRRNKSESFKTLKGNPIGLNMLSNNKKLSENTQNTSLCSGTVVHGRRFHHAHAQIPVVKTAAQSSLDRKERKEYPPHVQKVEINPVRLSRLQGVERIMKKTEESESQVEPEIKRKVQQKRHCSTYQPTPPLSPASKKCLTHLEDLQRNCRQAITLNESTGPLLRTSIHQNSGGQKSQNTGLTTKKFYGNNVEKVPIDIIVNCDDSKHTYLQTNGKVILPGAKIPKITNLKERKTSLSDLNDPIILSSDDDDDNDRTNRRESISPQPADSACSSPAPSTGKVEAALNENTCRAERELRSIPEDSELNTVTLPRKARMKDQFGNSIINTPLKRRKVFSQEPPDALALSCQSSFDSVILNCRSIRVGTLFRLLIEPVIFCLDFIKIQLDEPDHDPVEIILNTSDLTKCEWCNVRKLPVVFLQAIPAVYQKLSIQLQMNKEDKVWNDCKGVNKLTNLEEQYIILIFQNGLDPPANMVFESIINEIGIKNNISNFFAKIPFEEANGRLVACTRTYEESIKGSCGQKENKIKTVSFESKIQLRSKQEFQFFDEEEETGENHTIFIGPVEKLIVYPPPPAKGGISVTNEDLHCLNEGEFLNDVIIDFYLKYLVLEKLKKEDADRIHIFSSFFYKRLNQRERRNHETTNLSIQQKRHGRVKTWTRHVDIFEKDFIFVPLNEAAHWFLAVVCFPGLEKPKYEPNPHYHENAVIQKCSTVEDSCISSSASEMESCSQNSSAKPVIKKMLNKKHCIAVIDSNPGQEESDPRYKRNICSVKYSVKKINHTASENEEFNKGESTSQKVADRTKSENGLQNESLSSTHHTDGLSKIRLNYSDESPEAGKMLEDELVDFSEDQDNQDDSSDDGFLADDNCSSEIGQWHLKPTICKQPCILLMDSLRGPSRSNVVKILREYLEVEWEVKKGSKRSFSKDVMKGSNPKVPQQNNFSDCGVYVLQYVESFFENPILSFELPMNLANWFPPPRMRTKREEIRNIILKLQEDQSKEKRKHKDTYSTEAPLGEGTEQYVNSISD

Caspase-3 = target: T2, Caspase-3 (Homo sapiens, UniProt P42574); assay: inhibition of recombinant caspase-3 activity – biochemical, luminescence, set 2, selectivity assay for SENP protease inhibitor project, SAR follow-up (AID 588599); format: functional
T2 sequence (P42574 whole entry): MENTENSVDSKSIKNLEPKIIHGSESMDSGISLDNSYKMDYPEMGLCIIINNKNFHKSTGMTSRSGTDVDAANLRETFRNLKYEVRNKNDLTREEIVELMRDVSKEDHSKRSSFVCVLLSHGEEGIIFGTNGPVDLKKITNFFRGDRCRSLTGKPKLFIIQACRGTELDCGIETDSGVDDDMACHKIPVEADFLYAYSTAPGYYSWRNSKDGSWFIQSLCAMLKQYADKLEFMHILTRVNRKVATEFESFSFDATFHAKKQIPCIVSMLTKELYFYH

[2] = target: T3, Sentrin-specific protease 7 (Homo sapiens, UniProt Q9BQF6); assay: inhibition of human SENP7 cleavage activity – biochemical, luminescence, set 2, SAR follow-up (AID 588600); format: functional
T3 sequence (Q9BQF6 whole entry): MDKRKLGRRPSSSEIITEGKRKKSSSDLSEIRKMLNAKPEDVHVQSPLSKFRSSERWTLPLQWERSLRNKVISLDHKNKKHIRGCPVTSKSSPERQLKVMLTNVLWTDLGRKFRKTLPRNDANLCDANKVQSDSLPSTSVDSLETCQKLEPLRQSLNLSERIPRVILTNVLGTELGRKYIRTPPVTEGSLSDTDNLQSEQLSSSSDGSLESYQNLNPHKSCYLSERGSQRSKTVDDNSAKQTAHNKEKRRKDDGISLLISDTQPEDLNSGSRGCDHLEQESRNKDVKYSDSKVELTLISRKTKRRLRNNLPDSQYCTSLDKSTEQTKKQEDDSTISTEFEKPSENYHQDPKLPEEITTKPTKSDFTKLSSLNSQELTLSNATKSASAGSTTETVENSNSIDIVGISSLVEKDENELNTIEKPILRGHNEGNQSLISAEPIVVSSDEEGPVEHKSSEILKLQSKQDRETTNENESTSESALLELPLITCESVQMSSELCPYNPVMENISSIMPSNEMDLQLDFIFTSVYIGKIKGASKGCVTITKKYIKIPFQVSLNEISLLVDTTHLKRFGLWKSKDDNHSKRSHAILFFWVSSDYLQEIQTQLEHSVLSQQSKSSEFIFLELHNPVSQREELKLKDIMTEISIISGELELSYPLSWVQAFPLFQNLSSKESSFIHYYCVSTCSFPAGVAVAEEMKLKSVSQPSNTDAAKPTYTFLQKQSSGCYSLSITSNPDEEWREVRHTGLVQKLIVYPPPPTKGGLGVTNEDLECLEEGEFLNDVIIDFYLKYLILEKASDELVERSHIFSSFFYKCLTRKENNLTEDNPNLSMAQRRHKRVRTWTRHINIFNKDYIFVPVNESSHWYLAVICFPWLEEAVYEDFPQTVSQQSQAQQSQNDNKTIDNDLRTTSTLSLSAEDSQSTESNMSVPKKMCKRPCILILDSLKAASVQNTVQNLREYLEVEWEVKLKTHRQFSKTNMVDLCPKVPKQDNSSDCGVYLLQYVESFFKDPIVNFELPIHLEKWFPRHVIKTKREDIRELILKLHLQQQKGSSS

[3] = target: T4, Sentrin-specific protease 8 (Homo sapiens, UniProt Q96LD8); assay: inhibition of sentrin protease 8 – biochemical, luminescence, set 2, SAR follow-up (AID 588601); format: functional
T4 sequence (Q96LD8 whole entry): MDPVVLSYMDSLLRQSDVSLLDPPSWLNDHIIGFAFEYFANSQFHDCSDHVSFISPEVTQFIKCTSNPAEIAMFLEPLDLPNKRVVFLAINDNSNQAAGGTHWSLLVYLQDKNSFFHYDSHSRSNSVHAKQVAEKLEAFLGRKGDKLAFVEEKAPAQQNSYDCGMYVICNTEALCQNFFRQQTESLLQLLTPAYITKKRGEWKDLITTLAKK

Streptococcus = assay: GAS UMAA2166 growth inhibition – luminescence, BacTiterGlo, counter-screen for streptokinase expression inhibitor project, dose response (AID 1915); format: functional, organism-based;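 also: potency for reduction of bacterial viability or growth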
BJ [4] = assay: cells; format: functional, cell-based; settings: Homo sapiens
BJ [5] = assay: BJ-TERT-LT-ST fibroblast viability loss – cell-based, RAS-independent, luminescence, dose response (AID 1935); format: functional; settings: Homo sapiens;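 also: BJ fibroblasts immortalized with TERT plus LT and ST oncogenes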
[6] = target: T5, Type-1 angiotensin II receptor (Homo sapiens, UniProt P30556); assay: antagonism of angiotensin II type 1 receptor – cell-based, uHTS hits, selectivity assay for APJ receptor antagonist project, dose response (AID 463214); format: functional;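 also: antagonist potency against angiotensin II stimulated AT1 response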
T5 sequence (P30556 whole entry): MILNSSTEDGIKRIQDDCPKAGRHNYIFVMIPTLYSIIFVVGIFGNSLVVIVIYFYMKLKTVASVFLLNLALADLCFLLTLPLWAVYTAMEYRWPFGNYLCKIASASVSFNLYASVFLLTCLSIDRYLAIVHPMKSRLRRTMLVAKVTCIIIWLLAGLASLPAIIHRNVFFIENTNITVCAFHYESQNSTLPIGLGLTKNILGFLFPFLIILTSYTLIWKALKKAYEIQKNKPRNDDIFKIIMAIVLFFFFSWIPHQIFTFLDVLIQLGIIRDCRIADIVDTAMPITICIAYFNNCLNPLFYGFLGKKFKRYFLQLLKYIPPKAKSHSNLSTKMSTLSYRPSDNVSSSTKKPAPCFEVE

[7] = system: Streptococcus sp. 'group A'; assay: Streptococcus pyogenes SK(-)GAS viability under kanamycin – luminescence, BacTiterGlo, confirmation, counter-screen for streptokinase expression inhibitor project, dose response (AID 1900); format: functional, organism-based
BJ [8] = assay: BJ-TERT fibroblast viability loss – cell-based, RAS-independent, luminescence, dose response (AID 1933); format: functional; settings: Homo sapiens
[9] = DRD fibroblast viability loss – cell-based, non-viral oncogenic, luminescence, dose response (AID 1934); format: functional; settings: Homo sapiens
[10] = target: Heat shock protein HSP 90-alpha (Homo sapiens, UniProt P07900); format: functional, organism-based
Beta-galactosidase = Beta-galactosidase (Escherichia coli, UniProt Q8VNN2); assay: PubChem AID 485352; format: functional
Beta-galactosidase, sequence (Q8VNN2 whole entry, the tested form may be a part): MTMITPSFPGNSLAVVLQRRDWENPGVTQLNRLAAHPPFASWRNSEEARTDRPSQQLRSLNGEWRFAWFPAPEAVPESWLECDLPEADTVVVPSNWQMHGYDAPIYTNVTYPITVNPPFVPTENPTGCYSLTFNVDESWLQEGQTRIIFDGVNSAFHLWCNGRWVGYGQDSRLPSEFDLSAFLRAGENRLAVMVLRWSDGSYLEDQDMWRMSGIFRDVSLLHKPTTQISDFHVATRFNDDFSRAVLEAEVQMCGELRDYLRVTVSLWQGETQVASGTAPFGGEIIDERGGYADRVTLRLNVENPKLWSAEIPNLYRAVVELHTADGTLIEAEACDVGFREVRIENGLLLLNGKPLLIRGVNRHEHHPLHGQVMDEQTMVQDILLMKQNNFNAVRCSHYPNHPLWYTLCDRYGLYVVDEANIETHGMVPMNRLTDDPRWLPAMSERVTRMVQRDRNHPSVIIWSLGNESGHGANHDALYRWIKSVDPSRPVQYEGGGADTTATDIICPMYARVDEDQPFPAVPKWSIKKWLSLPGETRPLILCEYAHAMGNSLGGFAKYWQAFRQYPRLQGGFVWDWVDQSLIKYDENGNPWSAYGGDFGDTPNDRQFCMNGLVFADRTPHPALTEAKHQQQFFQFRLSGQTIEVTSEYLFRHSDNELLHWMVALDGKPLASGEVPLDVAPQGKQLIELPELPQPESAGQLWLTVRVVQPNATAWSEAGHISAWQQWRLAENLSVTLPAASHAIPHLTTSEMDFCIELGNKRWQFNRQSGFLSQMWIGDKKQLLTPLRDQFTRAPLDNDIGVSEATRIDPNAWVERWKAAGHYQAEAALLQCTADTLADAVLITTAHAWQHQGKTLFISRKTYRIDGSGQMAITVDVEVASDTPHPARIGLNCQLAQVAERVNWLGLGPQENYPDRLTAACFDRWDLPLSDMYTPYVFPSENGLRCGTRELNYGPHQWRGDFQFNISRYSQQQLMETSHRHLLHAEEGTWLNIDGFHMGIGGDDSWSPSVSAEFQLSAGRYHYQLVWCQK

[11] = target: Nucleotide-binding oligomerization domain-containing protein 2 (Homo sapiens, UniProt Q9HC29); assay: inhibition of NOD2-driven NF-kB reporter – cell-based, luminescence, uHTS, HEK293 (AID 1566); format: functional
Nucleotide-binding oligomerization domain-containing protein 2, sequence (Q9HC29 whole entry, the tested form may be a part): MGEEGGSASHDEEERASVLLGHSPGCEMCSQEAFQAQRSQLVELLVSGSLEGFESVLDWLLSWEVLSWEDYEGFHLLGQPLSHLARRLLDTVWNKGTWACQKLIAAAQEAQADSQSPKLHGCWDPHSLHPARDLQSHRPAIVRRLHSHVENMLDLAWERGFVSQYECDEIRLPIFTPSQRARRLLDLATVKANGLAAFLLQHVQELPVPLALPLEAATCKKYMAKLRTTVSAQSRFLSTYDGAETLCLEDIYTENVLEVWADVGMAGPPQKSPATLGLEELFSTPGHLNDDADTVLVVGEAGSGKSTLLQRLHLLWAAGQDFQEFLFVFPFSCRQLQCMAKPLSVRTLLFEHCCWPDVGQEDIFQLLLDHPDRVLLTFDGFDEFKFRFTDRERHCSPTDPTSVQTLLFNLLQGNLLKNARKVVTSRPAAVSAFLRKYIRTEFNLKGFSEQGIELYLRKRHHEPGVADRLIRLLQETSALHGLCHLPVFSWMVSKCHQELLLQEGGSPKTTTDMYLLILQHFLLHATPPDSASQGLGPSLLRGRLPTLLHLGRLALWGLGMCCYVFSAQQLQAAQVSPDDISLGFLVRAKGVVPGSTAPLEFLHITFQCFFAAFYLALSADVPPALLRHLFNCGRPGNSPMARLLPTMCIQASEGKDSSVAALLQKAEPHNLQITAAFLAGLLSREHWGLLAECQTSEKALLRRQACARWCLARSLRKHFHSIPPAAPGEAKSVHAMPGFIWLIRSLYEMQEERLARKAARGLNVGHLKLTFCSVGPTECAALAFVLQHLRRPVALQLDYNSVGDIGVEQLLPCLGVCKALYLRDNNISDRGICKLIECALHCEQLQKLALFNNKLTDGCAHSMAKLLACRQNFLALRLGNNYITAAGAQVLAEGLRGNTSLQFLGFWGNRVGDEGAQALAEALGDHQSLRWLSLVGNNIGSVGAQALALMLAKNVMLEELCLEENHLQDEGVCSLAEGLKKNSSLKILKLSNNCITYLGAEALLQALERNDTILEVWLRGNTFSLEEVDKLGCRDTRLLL

Vero = assay: mammalian cell viability reduction – secondary assay, cytotoxicity control for West Nile virus antiviral project, dose response (AID 1650); format: functional; settings: Chlorocebus sabaeus
HEK293 [12] = assay: cells; format: functional, cell-based; settings: Homo sapiens
[13] = fluconazole-exposed Candida albicans growth modulators – fluorescence, retest, confirmation (AID 2467); format: functional, cell-based
HEK293 [14] = assay: NOD2 signaling inhibitors in MDP-stimulated cells, cell-based, uHTS, luminescence (AID 2001); format: functional; settings: Homo sapiens
INS1 = assay: INS-1E survival protection against cytokine death – cell-based, luminescence, retest, dose response (AID 449756); format: functional; settings: Rattus norvegicus;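 also: cell death triggered by IL-1 beta plus TNF-alpha plus IFN-gamma mixture; protective hits raise ATP signal compared with cytokine alone wells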
[15] = NIH-3T3 fibroblast cytotoxicity, dose response, cytotoxicity control, cell-based, fluorescence, Alamar Blue, secondary assay (AID 2327); format: functional;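 also: NIH-3T3 mouse fibroblasts cultured with fluconazole at 8 µg/mL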
[16] = HEK-293T viability loss after treatment – luminescence, T-cell screen hits, cytotoxicity control for TCR NF-kB inhibitor project, dose response (AID 489026); format: functional, cell-based;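 also: cells exposed to compound about 14 hours before the viability readout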
HEK293 [17] = assay: cells; format: functional, cell-based; settings: Homo sapiens; remark: listed apart in the source
HEK293 [18] = assay: cells; format: functional, cell-based; settings: Homo sapiens; remark: listed apart in the source
HEK293 [19] = assay: inhibition of NOD1-driven NF-kB reporter – cell-based, luminescence, uHTS, primary screen (AID 1578); format: functional; settings: Homo sapiens
Fatty acid synthase [20] = target: T6, Fatty acid synthase (Homo sapiens, UniProt P49327); assay: inhibition of human FAS-TE enzyme activity – biochemical, endpoint fluorescence intensity, uHTS hits, dose response (AID 624327); format: functional;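 also: fluorescence from hydrolysis of an O-methyl fluorescein acyl ester substrate by the enzyme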
T6 sequence (P49327 whole entry): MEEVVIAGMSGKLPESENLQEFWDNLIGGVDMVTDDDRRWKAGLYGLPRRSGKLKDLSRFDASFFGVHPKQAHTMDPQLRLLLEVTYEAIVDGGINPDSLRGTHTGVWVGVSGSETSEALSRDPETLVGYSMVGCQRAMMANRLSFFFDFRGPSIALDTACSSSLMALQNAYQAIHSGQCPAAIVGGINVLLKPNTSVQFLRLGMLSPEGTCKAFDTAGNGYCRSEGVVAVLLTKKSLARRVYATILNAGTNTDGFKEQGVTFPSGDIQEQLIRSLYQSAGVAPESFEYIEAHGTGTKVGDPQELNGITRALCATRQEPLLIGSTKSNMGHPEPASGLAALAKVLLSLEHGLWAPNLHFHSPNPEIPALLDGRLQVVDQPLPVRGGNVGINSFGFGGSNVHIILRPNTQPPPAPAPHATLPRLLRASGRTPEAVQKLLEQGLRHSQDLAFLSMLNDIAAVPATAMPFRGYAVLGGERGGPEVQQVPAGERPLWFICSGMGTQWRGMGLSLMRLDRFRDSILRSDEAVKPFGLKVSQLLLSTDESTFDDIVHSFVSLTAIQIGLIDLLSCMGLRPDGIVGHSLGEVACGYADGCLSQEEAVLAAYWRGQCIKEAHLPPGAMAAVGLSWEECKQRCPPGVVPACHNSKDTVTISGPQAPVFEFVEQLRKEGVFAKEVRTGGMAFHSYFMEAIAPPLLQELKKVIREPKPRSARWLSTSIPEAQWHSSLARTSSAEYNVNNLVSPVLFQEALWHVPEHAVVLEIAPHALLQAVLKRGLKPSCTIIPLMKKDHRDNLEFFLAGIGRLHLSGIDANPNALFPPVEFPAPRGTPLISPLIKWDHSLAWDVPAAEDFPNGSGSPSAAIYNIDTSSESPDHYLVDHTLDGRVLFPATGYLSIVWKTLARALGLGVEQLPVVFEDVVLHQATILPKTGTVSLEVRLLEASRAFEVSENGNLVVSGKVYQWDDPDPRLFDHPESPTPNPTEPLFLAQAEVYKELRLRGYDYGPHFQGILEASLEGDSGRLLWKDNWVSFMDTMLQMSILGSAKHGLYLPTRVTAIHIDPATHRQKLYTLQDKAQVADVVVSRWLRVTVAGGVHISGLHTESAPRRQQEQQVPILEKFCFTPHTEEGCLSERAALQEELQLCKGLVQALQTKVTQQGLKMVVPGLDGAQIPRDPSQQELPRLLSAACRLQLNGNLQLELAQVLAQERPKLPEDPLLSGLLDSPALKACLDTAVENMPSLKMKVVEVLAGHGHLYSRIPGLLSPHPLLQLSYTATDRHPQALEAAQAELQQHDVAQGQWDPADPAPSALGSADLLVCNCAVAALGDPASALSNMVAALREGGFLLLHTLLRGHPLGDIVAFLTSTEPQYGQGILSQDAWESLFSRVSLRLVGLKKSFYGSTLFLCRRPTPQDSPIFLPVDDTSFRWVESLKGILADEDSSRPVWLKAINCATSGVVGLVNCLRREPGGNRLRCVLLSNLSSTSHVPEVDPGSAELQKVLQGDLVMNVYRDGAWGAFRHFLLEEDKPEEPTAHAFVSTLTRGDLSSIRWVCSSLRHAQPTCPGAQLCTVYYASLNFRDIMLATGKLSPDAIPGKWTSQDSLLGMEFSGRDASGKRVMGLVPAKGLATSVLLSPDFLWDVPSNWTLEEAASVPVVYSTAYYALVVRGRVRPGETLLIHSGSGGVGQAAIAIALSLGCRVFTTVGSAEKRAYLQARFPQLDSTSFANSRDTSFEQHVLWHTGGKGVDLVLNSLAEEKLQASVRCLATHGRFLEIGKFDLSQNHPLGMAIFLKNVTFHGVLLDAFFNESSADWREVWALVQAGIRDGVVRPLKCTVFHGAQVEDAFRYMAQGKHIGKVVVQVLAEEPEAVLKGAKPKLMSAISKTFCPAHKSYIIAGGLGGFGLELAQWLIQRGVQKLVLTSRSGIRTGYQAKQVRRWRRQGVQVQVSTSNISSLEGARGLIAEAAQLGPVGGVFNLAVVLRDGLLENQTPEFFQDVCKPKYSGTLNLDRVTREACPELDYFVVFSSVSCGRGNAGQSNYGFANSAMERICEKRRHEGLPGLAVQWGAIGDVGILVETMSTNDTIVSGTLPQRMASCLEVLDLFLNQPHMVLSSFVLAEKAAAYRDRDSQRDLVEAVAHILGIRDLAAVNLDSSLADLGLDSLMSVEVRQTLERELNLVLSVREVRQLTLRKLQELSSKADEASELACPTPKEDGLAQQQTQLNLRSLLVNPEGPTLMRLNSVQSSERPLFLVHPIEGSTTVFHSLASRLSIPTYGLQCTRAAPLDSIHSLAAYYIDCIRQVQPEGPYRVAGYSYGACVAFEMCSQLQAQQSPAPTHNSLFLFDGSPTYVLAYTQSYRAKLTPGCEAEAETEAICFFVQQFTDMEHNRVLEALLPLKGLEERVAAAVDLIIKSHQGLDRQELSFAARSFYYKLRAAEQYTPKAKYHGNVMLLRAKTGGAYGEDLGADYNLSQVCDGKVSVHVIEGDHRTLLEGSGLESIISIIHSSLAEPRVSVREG

Fatty acid synthase [21] = target: T6, Fatty acid synthase; assay: inhibition of human FAS-TE enzyme activity – biochemical, kinetic fluorescence intensity, dose response (AID 624326); format: functional;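 also: rate of fluorescence rise from hydrolysis of a fluorogenic O-methyl fluorescein ester substrate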
[22] = target: T7, Carboxy-terminal domain RNA polymerase II polypeptide A small phosphatase 1 (Homo sapiens, UniProt Q9GZU7); assay: CTDSP1 inhibitors, concentration-response, biochemical, absorbance readout, ultra-high-throughput screen actives (AID 540297); format: functional
T7 sequence (Q9GZU7 whole entry): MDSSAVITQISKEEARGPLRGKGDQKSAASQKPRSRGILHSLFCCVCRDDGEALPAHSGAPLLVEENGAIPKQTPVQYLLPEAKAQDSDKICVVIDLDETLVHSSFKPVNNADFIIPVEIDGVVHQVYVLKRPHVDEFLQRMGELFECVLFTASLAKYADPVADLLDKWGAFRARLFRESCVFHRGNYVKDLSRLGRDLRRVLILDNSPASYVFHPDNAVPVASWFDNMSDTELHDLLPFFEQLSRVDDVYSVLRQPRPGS

CN(C)C(=O)C(=O)c1c(-c2ccccc2)[nH]c2ccc(Cl)cc12
IC50 [1]: > 99 µM (inactive) | IC50 (Caspase-3): > 99 µM (inactive) | IC50 [2]: > 99 µM (inactive) | IC50 [3]: > 99 µM (inactive)

CNC(=O)C1Cc2ccccc2N1C(=O)C(=O)c1c(C)[nH]c2ccccc12 (stereo not given)
IC50 [1]: > 99 µM (inactive) | IC50 (Caspase-3): > 99 µM (inactive) | IC50 [2]: > 99 µM (inactive) | IC50 [3]: > 99 µM (inactive)

Oc1cccc2ccc(/C=C/c3ccccc3Cl)nc12
EC50 (Streptococcus): 1.3 µM (active) | EC50 (BJ [4]): 28.5 µM (active) | EC50 (BJ [5]): > 150 µM (inconclusive) | IC50 [6]: 32.3 µM (not active) | EC50 [7]: 345 nM (active) | EC50 (BJ [8]): 12.9 µM (active) | EC50 [9]: 32.6 µM (active) | AC50 [10]: 11.6 µM (active) | EC50 (Beta-galactosidase): > 40 µM (inactive)

Cc1ccc(C)c(N=Nc2ccc(O)c3ncccc23)c1
EC50 [11]: > 20 µM (inactive) | CC50 (Vero): 6.64 µM (active) | IC50 (HEK293 [12]): > 20 µM (inactive) | EC50 [13]: 1.57 µM (active) | IC50 (HEK293 [14]): 3 µM (active) | AC50 (INS1): 1.29 µM (active) | EC50 [15]: 17 µM (active) | IC50 [6]: 9.84 µM (active) | IC50 [16]: > 80 µM (inactive) | IC50 (HEK293 [17]): 1.89 µM (active) | IC50 (HEK293 [18]): > 20 µM (inactive) | EC50 (HEK293 [19]): 4.12 µM (active) | EC50 (Beta-galactosidase): > 40 µM (inactive)

O=C(CCCC(=O)Nc1cccc(Br)c1)N/N=C/c1cc([N+](=O)[O-])ccc1O
IC50 (Fatty acid synthase [20]): 10 µM (active) | IC50 (Fatty acid synthase [21]): 7.42 µM (active) | IC50 [6]: > 40 µM (not active) | IC50 [22]: 6.26 µM (active) | EC50 (Beta-galactosidase): > 40 µM (inactive)
